According to patent US20250213532A1, “5-METHOXY-N,N-[…][…] THE TREATMENT OF BIPOLAR DISORDER” (GH RESEARCH IRELAND LIMITED, priority 2022, published 2025):

How the values were obtained:
[1] = tested on: patients with clinically diagnosed postpartum depression (PPD); assay: Clinical trial in postpartum depression: safety and tolerability; type: in vivo, human; details: one PPD patient
Source text: The patient completed all planned visit days.

[2] = Acute psychedelic effects after inhalation; set-up: species or system human; details: in vivo
[3] = tested on: patients with treatment-resistant major depressive disorder (TRD); assay: Phase 1/2 clinical trial of inhaled 5-MeO-DMT in TRD: safety and tolerability; details: Part A
Description: This trial was designed in two parts. Part A was an open-label, single-arm, single-dose Phase 1 trial with two dose levels (12 mg (n=4) and 18 mg (n=4)). […] The primary endpoint of Part B was to assess the effects on the severity of depression, as assessed by the proportion of patients in remission on day seven after dosing, defined as a MADRS total score of less than or equal to 10.

[4] = tested on: patients with treatment-resistant major depressive disorder (TRD); assay: Phase 1/2 clinical trial of inhaled 5-MeO-DMT in TRD: MADRS; type: in vivo, human
Description: When assessing a clinical response at an early timepoint after drug administration (e.g. at 2 hours) based on endpoints which have been developed for a longer recall period (e.g. normally 7 days for the MADRS), a rational modification of such endpoint (e.g. changing the MADRS recall period to 2 hours and carrying forward the sleep item recorded at baseline before drug administration) may be applied. The same applies with respect to the BDRS (in particular the item sleep disturbance) and any other scale applied herein, unless a recall period is specifically indicated.
The Montgomery-Asberg Depression Rating Scale (MADRS) is a ten-item diagnostic questionnaire used to measure the severity of depressive episodes in patients with mood disorders (Montgomery, S. A., & Asberg, M. (1979). A new depression scale designed to be sensitive to change. The British Journal of Psychiatry 134, p.382). It was designed as an adjunct to the Hamilton Rating Scale for Depression (HAM-D), which would be more sensitive to the changes brought on by antidepressants and other forms of treatment. Higher MADRS score indicates more severe depression. The items considered are apparent sadness; reported sadness; inner tension; reduced sleep; reduced appetite; concentration difficulties; lassitude; inability to feel; pessimistic thoughts; and suicidal thoughts, and each item yields a score of 0 to 6. The overall score ranges from 0 to 60. Score ranges used herein for assessing the severity of depressive episodes in patients with bipolar disorder are 13-18 for “mildly ill”, 19-23 for “moderately ill”, 24-36 for “markedly ill”, 37-39 for “severely ill”, and 40 for “extremely ill” (Thase, 2021).
Patients were assigned to different groups.
This trial was designed in two parts.

[5] = 12 mg n=4, 2 hours, baseline 13
[6] = 12 mg n=4, 2 hours, baseline 16

Compound: COc1ccc2[nH]cc(CCN(C)C)c2c1 [5-MeO-DMT]
- Tolerability of inhalation procedure [1]: well tolerated with no inhalation-related adverse events
- Adverse events (cramping left abdominal pain and headache) ([1]; Day 0): mild, short-lasting and resolved spontaneously
- ECG, safety laboratory analyses, CADSS ([1]; ECG 3 hours, laboratory 7 days, CADSS 3 hours, 1 day, 7 days): unremarkable
- Onset of effect [2]: merely seconds
- Patients who experienced at least one ADR ([3]; 12 mg single dose): 3 of 4
- Patients who experienced at least one ADR ([3]; 18 mg single dose): 3 of 4
- MADRS Suicidal Thoughts percentage improvement ([4]; 12 mg n=4, 2 hours, baseline 8): 63%
- MADRS Suicidal Thoughts score (sum) ([4]; 12 mg n=4, 2 hours, baseline 8): 3
- MADRS Inner Tension percentage improvement [4, 5]: 85%
- MADRS Inner Tension score (sum) [4, 5]: 2
- MADRS Concentration Difficulties percentage improvement [4, 6]: 56%
- MADRS Concentration Difficulties score (sum) [4, 6]: 7
- MADRS Inability to Feel percentage improvement [4, 6]: 44%
- MADRS Inability to Feel score (sum) [4, 6]: 9
- MADRS Lassitude percentage improvement [4, 6]: 38%
- MADRS Lassitude score (sum) [4, 6]: 10
- MADRS Pessimistic Thoughts percentage improvement [4, 6]: 50%
- MADRS Pessimistic Thoughts score (sum) [4, 6]: 8
- MADRS Suicidal Thoughts score (sum) ([4]; 12 mg n=4, Day 1, baseline 8): 5
- MADRS Reduced Sleep score (sum) ([4]; 12 mg n=4, Day 1, baseline 12): 10
- MADRS Inner Tension percentage improvement ([4]; 12 mg n=4, Day 1, baseline 13): 77%
- MADRS Inner Tension score (sum) ([4]; 12 mg n=4, Day 1, baseline 13): 3
- MADRS Concentration Difficulties percentage improvement ([4]; 12 mg n=4, Day 1, baseline 16): 88%
- MADRS Concentration Difficulties score (sum) ([4]; 12 mg n=4, Day 1, baseline 16): 2
- MADRS Inability to Feel score (sum) ([4]; 12 mg n=4, Day 1, baseline 16): 1
- MADRS Lassitude percentage improvement ([4]; 12 mg n=4, Day 1, baseline 16): 100%
- MADRS Lassitude score (sum) ([4]; 12 mg n=4, Day 1, baseline 16): 0
- MADRS Pessimistic Thoughts percentage improvement ([4]; 12 mg n=4, Day 1, baseline 16): 56%
- MADRS Pessimistic Thoughts score (sum) ([4]; 12 mg n=4, Day 1, baseline 16): 7
- MADRS Suicidal Thoughts score (sum) ([4]; 12 mg n=4, Day 7, baseline 8): 7
- MADRS Reduced Sleep score (sum) ([4]; 12 mg n=4, Day 7, baseline 12): 6
- MADRS Inner Tension percentage improvement ([4]; 12 mg n=4, Day 7, baseline 13): 62%
- MADRS Inner Tension score (sum) ([4]; 12 mg n=4, Day 7, baseline 13): 5
- MADRS Concentration Difficulties percentage improvement ([4]; 12 mg n=4, Day 7, baseline 16): 81%
- MADRS Concentration Difficulties score (sum) ([4]; 12 mg n=4, Day 7, baseline 16): 3
- MADRS Inability to Feel score (sum) ([4]; 12 mg n=4, Day 7, baseline 16): 1
- MADRS Lassitude percentage improvement ([4]; 12 mg n=4, Day 7, baseline 16): 81%
- MADRS Lassitude score (sum) ([4]; 12 mg n=4, Day 7, baseline 16): 3
- MADRS Pessimistic Thoughts percentage improvement ([4]; 12 mg n=4, Day 7, baseline 16): 50%
- MADRS Pessimistic Thoughts score (sum) ([4]; 12 mg n=4, Day 7, baseline 16): 8
- MADRS Suicidal Thoughts percentage improvement ([4]; IDR n=8, 2 hours, baseline 11): 73%
- MADRS Suicidal Thoughts score (sum) ([4]; IDR n=8, 2 hours, baseline 11): 3
- MADRS Inner Tension percentage improvement ([4]; IDR n=8, 2 hours, baseline 26): 58%
- MADRS Inner Tension score (sum) ([4]; IDR n=8, 2 hours, baseline 26): 11
- MADRS Lassitude percentage improvement ([4]; IDR n=8, 2 hours, baseline 27): 63%
- MADRS Lassitude score (sum) ([4]; IDR n=8, 2 hours, baseline 27): 10
- MADRS Pessimistic Thoughts percentage improvement ([4]; IDR n=8, 2 hours, baseline 28): 75%
- MADRS Pessimistic Thoughts score (sum) ([4]; IDR n=8, 2 hours, baseline 28): 7
- MADRS Concentration Difficulties percentage improvement ([4]; IDR n=8, 2 hours, baseline 30): 63%
- MADRS Concentration Difficulties score (sum) ([4]; IDR n=8, 2 hours, baseline 30): 11
- MADRS Inability to Feel percentage improvement ([4]; IDR n=8, 2 hours, baseline 36): 67%
- MADRS Inability to Feel score (sum) ([4]; IDR n=8, 2 hours, baseline 36): 12
- MADRS Suicidal Thoughts score (sum) ([4]; IDR n=8, Day 1, baseline 11): 1
- MADRS Reduced Sleep score (sum) ([4]; IDR n=8, Day 1, baseline 25): 12
- MADRS Inner Tension percentage improvement ([4]; IDR n=8, Day 1, baseline 26): 77%
- MADRS Inner Tension score (sum) ([4]; IDR n=8, Day 1, baseline 26): 6
- MADRS Lassitude percentage improvement ([4]; IDR n=8, Day 1, baseline 27): 81%
- MADRS Lassitude score (sum) ([4]; IDR n=8, Day 1, baseline 27): 5
- MADRS Pessimistic Thoughts percentage improvement ([4]; IDR n=8, Day 1, baseline 28): 86%
- MADRS Pessimistic Thoughts score (sum) ([4]; IDR n=8, Day 1, baseline 28): 4
- MADRS Concentration Difficulties percentage improvement ([4]; IDR n=8, Day 1, baseline 30): 97%
- MADRS Concentration Difficulties score (sum) ([4]; IDR n=8, Day 1, baseline 30): 1
- MADRS Inability to Feel score (sum) ([4]; IDR n=8, Day 1, baseline 36): 2
- MADRS Suicidal Thoughts score (sum) ([4]; IDR n=8, Day 7, baseline 11): 3
- MADRS Reduced Sleep score (sum) ([4]; IDR n=8, Day 7, baseline 25): 9
- MADRS Inner Tension percentage improvement ([4]; IDR n=8, Day 7, baseline 26): 54%
- MADRS Inner Tension score (sum) ([4]; IDR n=8, Day 7, baseline 26): 12
- MADRS Lassitude percentage improvement ([4]; IDR n=8, Day 7, baseline 27): 89%
- MADRS Lassitude score (sum) ([4]; IDR n=8, Day 7, baseline 27): 3
- MADRS Pessimistic Thoughts percentage improvement ([4]; IDR n=8, Day 7, baseline 28): 89%
- MADRS Pessimistic Thoughts score (sum) ([4]; IDR n=8, Day 7, baseline 28): 3
- MADRS Concentration Difficulties percentage improvement ([4]; IDR n=8, Day 7, baseline 30): 70%
- MADRS Concentration Difficulties score (sum) ([4]; IDR n=8, Day 7, baseline 30): 9
- MADRS Inability to Feel score (sum) ([4]; IDR n=8, Day 7, baseline 36): 6
